# Laboratory results as given in US10774084B2, “Adenine derivatives and their use as UV-photoprotective agents” (UNIVERZITA PALACKEHO V OLOMOUCI, priority 2015, dated 2020).
# Experiments:
# HaCaT [1] = assay: Calcein AM cytotoxicity assay; type: cell-based; conditions: Homo sapiens, 72 hrs
# Description: (§1) One of the parameters used as the base for cytotoxic analysis is metabolic activity of viable cells. Microtiter assay, which uses the Calcein AM, is now widely used to quantify cell proliferation and cytotoxicity. The quantity of […] Calcein AM corresponds to the number of viable cells in culture. The cell lines of breast cancer (MCF-7), human erythromleukemia (K562), BJ human fibroblast cells (BJ) and human keratinocyte cell line (HaCaT) were used for routine screening of cytotoxicity of the compounds. The cells were maintened in Nunc/Corning 80 cm^2 plastic bottles and grown in media for cell culture (DMEM containing 5 g/l of glucose, 2 mM of glutamin, 100 U/ml of penicilin, 100 μg/ml of streptomycin, 10% of fetal bovine serum and sodium hydrogencarbonate). Cell suspensions were diluted according to cell types and according to expected final cell density (10^4 of cells per well according to characteristics of cell growth), pippeted 80 μl of cell suspension on 96-well microtiter plates. Innoculates were stabilized by 24 hrs preincubation at 37° C. in CO2. Particular concentrations of tested compounds were added in time zero as 20 μl aliquotto wells of microtiter plates. Usually, the compounds were diluted into six concentrations in four-fold dilution series. In routine testing, the highest well concentration was 166.7 μM, of change dependent on the substance. All drug concentrations were examined in duplicates. The incubation of cells with tested derivatives lasted 72 hrs at 37° C., 100% humidity and in the atmosphere of CO2. At the end of the incubation period, the cells were tested and analysed according to the addition of Calcein AM (Molecular probes) solution and the incubation lasted for next 1 hour. Fluorescence (FD) was measured using Labsystem FIA reader Fluorskan Ascent (Microsystems). The survival of tumor cells (The tumor cell survival-TCS) was counted according to equation: […](FDwell with derivative/FDcontrol well)×100%. The value of GI50, that is equal to the concentration of compound at which 50% of tumour cells are terminated. To evaluate the antitumor activity was tested toxicity of new derivatives on panel of cell lines of different histogenetic and species origin (Tab. 6, G150 concentration given in μM). […] Effective derivatives killed tumor cells in concentrations close to 0.1 to 50. None of the newly prepared compounds only reached the value.
# K562 = assay: Calcein AM cytotoxicity assay; type: cell-based; conditions: Homo sapiens, 72 hrs
# Description: as §1
# [2] = tested on: BJ human fibroblast cells; assay: Calcein AM cytotoxicity assay; type: cell-based; conditions: 72 hrs
# Description: as §1
# MCF-7 = assay: Calcein AM cytotoxicity assay; type: cell-based; conditions: Homo sapiens, MCF7, 72 hrs
# Description: as §1
# [3] = tested on: Triticum aestivum cv. Hereward leaf segments; assay: Senescence bioassay on detached wheat leaf segments (chlorophyll retention); conditions: for maximum effective concentration: 96 h in the dark; for activity (%) [10^−4 mol · l^−1 BAP = 100%]: at maximum effective concentration
# Procedure: Seeds of winter wheat, Triticum aestivum cv. Hereward, were washed under running water for 24 hours and then sown on vermiculite soaked with Knop's solution. They were placed in the growth chamber at 25° C. with a 16/8 h light period at […]. After 7 days, the first leaf was fully developed and the second leaf had started to grow. A tip section of the first leaf, approximately 35 mm long, was removed from 5 seedlings and trimmed slightly to a combined weight of 100 mg. The basal ends of the five leaf tips were placed in the wells of a microtiter polystyrene plate containing 150 μL of the tested derivative solution each. The entire plate was inserted into a plastic box lined with paper tissues soaked in distilled water to prevent leaf sections from drying out. After 96 h incubation in the dark at 25° C., the leaves were removed and chlorophyll extracted by heating at 80° C. for 10 min in 5 mL of 80% ethanol (v/v). The sample volume was then restored to 5 mL by the addition of 80% ethanol (v/v). The absorbance of the extract was recorded at 665 nm. In addition, chlorophyll extracts from fresh leaves and leaf tips incubated in deionised water were measured. The results are means of five replicates and the entire test was repeated twice. […] The compounds to be tested were dissolved in dimethylsulfoxide (DMSO) and the solution brought up to 10^−3 M with distilled water. […] The activity obtained for 10^−4 M of BAP was postulated as 100%. Kinetin was used as the second standard. Newly prepared compounds generally exceeded the efficiency of standard (BAP) by 10% of its activity (Tab. 5).
# [4] = tested on: skin fibroblasts BJ and keratinocytes HaCaT; assay: MTT in vitro cytotoxicity test for skin cells; type: cell-based; conditions: Homo sapiens; 72 hour treatment; table does not say which cell line (BJ, HaCaT)
# Procedure: MTT assay is a standard test of toxicity based on photometric measurement of the ability of metabolically active cells to reduce MTT (3-(4,5-dimethylthiazol-2-yl)-2,5-diphenyltetrazolium bromide). Using the assay, the effects of 72 hour treatments with several concentrations of the compounds (sixfold dilution, maximal concentration=50 microM) on viability of skin fibroblasts BJ and keratinocytes HaCaT were evaluated. About 5,000 cells were seeded per well of a 96-well plate 24 hours before the treatment. DMSO vehiculum was used as a negative control. After 72 hour treatment, new medium with MTT (Sigma, M2128) was added to a final concentration of 0.5 mg/ml. After 3 hours, medium was removed and resulting formazan in the cells was dissolved in DMSO. The absorbance was measured at 570 nm (640 nm reference wavelength). The IC50 values were calculated from the dose-response curves. 6-furfurylaminopurine riboside was used as positive controls.
# HaCaT [5] = assay: In vitro UVA/UVB photoprotection test on HaCaT; type: cell-based, human
# Procedure: Spontaneously Immortalized Aneuploid Human Keratinocyte Cell Line (HaCaT) was bought from CLS (Eppeheim, Germany) and used as an in vitro model. For all experiments the keratinocytes were seeded onto 96-well plates at a density of 1.6×10^5 cells/ml (0.2 ml per well) of growth medium (DMEM supplemented with fetal bovine serum (10%), penicillin ([…]) and streptomycin (100 U/ml)).
# Test substances included compounds number 3, 9, 15 and 20. Compounds were dissolved in DMSO and then diluted in serum free medium (DMEM supplemented penicillin ([…]) and streptomycin (100 U/ml)). After 24 h incubation was growth medium changed to serum free medium containing test compounds. The final applied concentration range was 3.9-31.25 μmol/l. As a control, serum free medium supplemented with appropriate concentration of DMSO (0.5%, v/v) was used. Rosmarinic acid was used as positive control. After 60 minutes incubation with test compounds medium was discarded, cells were washed two-times with PBS and PBS supplemented with glucose (1 mg/ml) was applied. To study UVA photoprotection, a plate was exposed to a cytotoxic dose of UVA radiation (10 J/cm2) using a solar simulator SOL 500 (Dr. Hoenle Technology, Germany) equipped with a H1 filter transmitting wavelengths of 320-400 nm. To study UVB photoprotection, a plate was exposed to a cytotoxic dose of UVB radiation (150 mJ/cm2) using the solar simulator equipped with a H2 filter transmitting wavelengths of 295-320 nm. Intensity of UVA or UVB radiation was evaluated before each irradiation by UVA- or UVB-meter. Control (non-irradiated) plates were for the period of irradiation incubated in dark. After UVA or UVB exposure PBS with glucose was discarded and serum free medium was applied. After 24 hours (37° C., 5% CO2) cell damage was evaluated by neutral red (NR) incorporation into viable cells. Medium was discarded and NR solution (0.03% w/v, PBS) was applied. After 60 minutes NR solution was discarded, cells were fixed with a mixture of formaldehyde (0.5%, v/v) and CaCl2 (1%, m/v) in ratio 1:1 and then NR was dissolved in methanol (50%, v/v) with acetic acid (1%, v/v).
# After 5 minutes of intensive shaking absorbance was measured at 540 nm. Experiments were performed in four independent repetitions with use of […] to minimize individual sensitivity of donor cells. Photoprotective effect was evaluated by comparison of experimental data (absorbance) of test compounds with a positive control and a negative control (according to the following equation: […]
# As . . . absorbance of sample (cells pre-incubated with test compounds in serum free medium and irradiated)
# Anc . . . absorbance of negative control (cells pre-incubated with s DMSO in serum free medium and non-irradiated=incubated in dark)
# Apc . . . absorbance of positive control (cells pre-incubated with s DMSO in serum free medium and irradiated)
# [6] = tested on: Normal human dermal fibroblasts (NHDF); assay: In vitro UVA/UVB photoprotection test on NHDF (Example 9); type: cell-based
# Description: Normal human dermal fibroblasts (NHDF) were used as an in vitro model. Cells were isolated from tissue specimens obtained from healthy patients undergoing plastic surgery at the Department of Plastic and Aesthetic Surgery (University Hospital Olomouc). The use of skin tissue was in accordance with the Ethics Committee of the University Hospital and Faculty of Medicine and Dentistry, Palacky University, Olomouc and all patients signed written informed consent. Fibroblasts were used between the 2nd and 4th passage. For all experiments the fibroblasts were seeded onto 96-well plates at a density of 0.8×10^5 cells/ml (0.2 ml per well) of cultivation medium (DMEM supplemented with fetal calf serum (10%, v/v), penicillin ([…]) and streptomycin (100 U/ml)). Test substances included compounds number 1, 3, 9, 15 and 20. Compounds were dissolved in DMSO and then diluted in serum free medium (DMEM supplemented with penicillin ([…]) and streptomycin (100 U/ml)). After 24 h incubation was cultivation medium changed to serum free medium containing test compound or DMSO (negative control). The final applied concentrations range was 3.9-31.3 μmol/ll. As a control serum free medium supplemented with appropriate concentration of DMSO (0.5%, v/v) was used. Rosmarinic acid was used as positive control. Each test compound was in parallel applied on two 96-well plates with NHDF. After 60 minutes incubation medium with test compound was discarded, cells were washed two-times with PBS and PBS supplemented with glucose (1 mg/ml) was applied. To study UVA photoprotection, a plate was exposed to a cytotoxic dose of UVA radiation (7.5 J/cm^2) using a solar simulator SOL 500 (Dr. Hoenle Technology, Germany) equipped with a H1 filter transmitting wavelengths of 320-400 nm. To study UVB photoprotection, a plate was exposed to a cytotoxic dose of UVB radiation (150 mJ/cm^2) using the solar simulator equipped with a H2 filter transmitting wavelengths of 295-320 nm. Intensity of UVA or UVB radiation was evaluated before each irradiation by UVA- or UVB-meter. Control (non-irradiated) plates were for the period of irradiation incubated in dark. After UVA or UVB exposure PBS with glucose was discarded and serum free medium was applied. After 24 hours (37° C., 5% CO2) cell damage was evaluated by neutral red (NR) incorporation into viable cells. Medium was discarded and NR solution (0.03% w/v, PBS) was applied. After 60 minutes NR solution was discarded, cells were fixed with a mixture of formaldehyde (0.5%, v/v) and CaCl2 (1%, m/v) in ratio 1:1 and then NR was dissolved in methanol (50%, v/v) with acetic acid (1%, v/v). After 5 minutes of intensive shaking absorbance was measured at 540 nm. Experiments were performed in four independent repetitions with use of cells from four donors to minimize individual sensitivity of donor cells. Photoprotective effect was evaluated by comparison of experimental data (absorbance) of test compounds with a positive control and a negative control (according to the following equation:
# [formula] • As . . . absorbance of sample (cells pre-incubated with test compounds in serum free medium and irradiated) • Anc . . . absorbance of negative control (cells pre-incubated with s DMSO in serum free medium and non-irradiated=incubated in dark) • Apc . . . absorbance of positive control (cells pre-incubated with s DMSO in serum free medium and irradiated)
smiles,measurement,setting,value
c1coc(CNc2ncnc3c2ncn3C2CCCO2)c1 (centres unmarked) [6-furfurylamino-9-(tetrahydrofuran-2-yl)purine],GI50,HaCaT [1],> 100 µM
same,GI50,K562,> 100 µM
same,GI50,[2],> 100 µM
same,GI50,MCF-7,> 100 µM
same,maximum effective concentration,[3],10^−4 mol · l^−1
same,activity (%) [10^−4 mol · l^−1 BAP = 100%],[3],114 ± 3%
"OC[C@H]1OC(n2cnc3c(NCc4ccco4)ncnc32)[C@H](O)[C@@H]1O (some centres unmarked) [6-furfurylamino-9-ribosylpurine, reference compound]",IC50,[4],≤ 3 µM
"c1ccc(CNc2ncnc3nc[nH]c23)cc1 [BAP, 6-benzylaminopurine, reference compound]",maximum effective concentration,[3],10^−4 mol · l^−1
same,activity (%) [10^−4 mol · l^−1 BAP = 100%],[3],100 ± 1%
"Cc1ccsc1CNc1ncnc2c1ncn2C1CCCO1 (centres unmarked) [Compound 10, 6-(3-methylthiophen-2-ylmethylamino)-9-(tetrahydrofuran-2-yl)purine]",maximum effective concentration,[3],10^−4 mol · l^−1
same,activity (%) [10^−4 mol · l^−1 BAP = 100%],[3],110 ± 7%
"O=C(/C=C/c1ccc(O)c(O)c1)O[C@H](Cc1ccc(O)c(O)c1)C(=O)O [RA, rosmarinic acid, reference compound]",Protection (%),"HaCaT [5]; Table 17: UVA-induced damage (10 J/cm2), 3.9 μmol/l",23.6%
same,Protection (%),"HaCaT [5]; Table 17: UVA-induced damage (10 J/cm2), 7.8 μmol/l",42.3%
same,Protection (%),"HaCaT [5]; Table 17: UVA-induced damage (10 J/cm2), 15.6 μmol/l",36.2%
same,Protection (%),"HaCaT [5]; Table 17: UVA-induced damage (10 J/cm2), 31.3 μmol/l",44.0%
same,Protection (%),"HaCaT [5]; Table 18: titled UVA-induced damage, 3.9 μmol/l",22%
same,Protection (%),"HaCaT [5]; Table 18: titled UVA-induced damage, 7.8 μmol/l",48.5%
same,Protection (%),"HaCaT [5]; Table 18: titled UVA-induced damage, 15.6 μmol/l",55.7%
same,Protection (%),"HaCaT [5]; Table 18: titled UVA-induced damage, 31.3 μmol/l",54.3%
same,Protection (%),"[6]; UVA 7.5 J/cm^2, 3.9 μmol/l",6.1%
same,Protection (%),"[6]; UVA 7.5 J/cm^2, 7.8 μmol/l",14.7%
same,Protection (%),"[6]; UVA 7.5 J/cm^2, 15.6 μmol/l",17.0%
same,Protection (%),"[6]; UVA 7.5 J/cm^2, 31.3 μmol/l",19.3%
same,Protection (%),"[6]; UVB 150 mJ/cm^2, 3.9 μmol/l",36.8%
same,Protection (%),"[6]; UVB 150 mJ/cm^2, 7.8 μmol/l",50.9%
same,Protection (%),"[6]; UVB 150 mJ/cm^2, 15.6 μmol/l",52.9%
same,Protection (%),"[6]; UVB 150 mJ/cm^2, 31.3 μmol/l",67.7%
"c1coc(CNc2ncnc3nc[nH]c23)c1 [kinetin, 6-furfurylaminopurine, reference compound]",maximum effective concentration,[3],10^−4 mol · l^−1
same,activity (%) [10^−4 mol · l^−1 BAP = 100%],[3],98 ± 4%
